Measurements: patent publication US20050186135A1, “Compositions, methods, apparatuses, and systems for singlet oxygen delivery” (priority 2001, published 2005)

Columns and labels:
[1] = tested on: atherosclerosis; settings: in vivo; cited from earlier work
[2] = Ameta et al. 1990; Parker and Stanbro 1984; cited from earlier work
[3] = tested on: mitosis; settings: Lamprecht et al. 1990; cited from earlier work
[4] = in vivo; cited from earlier work
[5] = tested on: tumor growth; settings: mice, Altermatt et al. 1990; cited from earlier work
[6] = tested on: influenzal pneumonia; settings: intravenous hydrogen peroxide solution, Oliver 1920; cited from earlier work
[7] = stated as believed; cited from earlier work
[8] = tested on: a single cell; settings: Oseroff et al. 1986; cited from earlier work
[9] = tested on: coronary artery blocked with sclerotic plaque; assay: Treatment of Sclerotic Plaque II: hypochlorite alone, then peroxide added; set-up: species or system human; settings: 2 ml of 6% sodium hypochlorite alone
Experimental: The following tests were performed to corroborate that the singlet oxygen produced by the hydrogen peroxide and the sodium hypochlorite had actually cleared and opened the human coronary artery blocked with the sclerotic plaque.
Like Example 3, a coronary artery blocked with sclerotic plaque, taken from a human cadaver, was prepared as a target site for treatment. The coronary artery was grayish pink in color and suspended in a formaldehyde preservative. It was surrounded with fatty tissue of an irregular shape, which measured 1.1 cm in its widest dimension. It measured approximately 0.6 cm in length and 0.5 cm in diameter. The lumen of the vessel was completed occluded with sclerotic plaque.
The human coronary artery with the plaque was first treated with 2 ml of 6% solution of sodium hypochlorite alone.
Immediately after the treatment with the sodium hypochlorite, 2 ml of 3% solution of hydrogen peroxide was added to the 2 ml of 6% solution of sodium hypochlorite containing the human coronary artery with the plaque.

[10] = tested on: skin keratosis lesion; assay: Treatment of Keratosis I: intralesional injection; type: in vivo, human; settings: 0.4 ml of 6% sodium hypochlorite alone into center of ~1.25 cm lesion
Experimental: A skin keratosis lesion measuring approximately 1.25 cm in diameter was chosen as a target for treatment. The lesion was located on the left temple of a person.
Using a 30-gauge hypodermic needle, 0.4 ml of a 6% solution of sodium hypochlorite was injected into the center of the lesion. […] See FIG. 20 for a photo of the area immediately following the injection.
Immediately after the first injection, using a 30-gauge hypodermic needle, 0.4 ml of a 3% solution of hydrogen peroxide was injected into the center of the lesion. […] See FIG. 21 for a photo of the area immediately following the injection.

[11] = tested on: coronary artery blocked with sclerotic plaque; assay: Treatment of Sclerotic Plaque I: cadaver artery section in test tube; set-up: species or system human; settings: 2 ml of 6% sodium hypochlorite, shaken one minute
From the text: A coronary artery blocked with sclerotic plaque, taken from a human cadaver, was chosen as a target site for treatment. The coronary artery was grayish pink in color and suspended in a formaldehyde preservative. It was surrounded with fatty tissue of an irregular shape, which measured approximately 1 cm in its widest dimension. It measured 0.6 cm in length and 0.5 cm diameter. The lumen of the vessel was completed occluded with sclerotic plaque.
The cross section of coronary artery was placed in a test tube containing 2 ml of 6% of sodium hypochlorite and was shaken for one minute. […] This preparation was then again shaken.

[12] = gives peroxyl and/or alkoxyl radicals; Noguchi et al. 2002; cited from earlier work

In the case of `CC(=O)[O-].CC(=O)[O-].CCc1c(CC)c2cc3nc(cnc4cc(OCCOCCOCCOC)c(OCCOCCOCCOC)cc4ncc4nc(cc1[n-]2)C(CCCO)=C4C)C(C)=C3CCCO.O.[Lu+3]` [Antrin, motexafin lutetium], the “feasibility and tolerability of photoangioplasty” value [1] is listed as “feasible and well tolerated”.
For `[2H]O[2H]` [D2O, deuterium oxide], the “effect on lifetime of singlet oxygen” value [2] is given as “can increase the lifetime of singlet oxygen”, the effect on mitosis [3] is given as “anti-mitotic effect optimized between anaphase and metaphase” and the safety in infants [4] is given as “safe”. For the same compound, the toxicity in mammals [4] was “low toxicity” and the “effect on rate of tumor growth” value [5] was “can depress the rate of tumor growth in mice”.
For `OO` [hydrogen peroxide], the treatment success [6] is given as “high rate of success”.
For `O=O` [singlet oxygen], the “lifetime of singlet oxygen” value [7] is given as “about 50 nanoseconds” and the “molecules of singlet oxygen necessary to kill a single cell” value [8] is given as 10^10 molecules.
In the case of `OCl` [sodium hypochlorite], the “change of plaque with hypochlorite alone” value [9] is reported as “no significant changes occurred to the plaque”, the “bleeding at injection site” value [10] is reported as “minor bleeding at the lower border of the injection site” and the sensation on injection ([10]; 30-gauge needle) is reported as “mild burning sensation”. For the same compound, the “solubilization by hypochlorite alone” value [11] was “minimal solubilization of the surrounding fatty tissue of the vessel”.
For `CC(C)(C)OO` [tert-butyl hydroperoxide], the “formation of singlet oxygen on reaction with hypochlorite” value [12] is listed as “little formation of singlet oxygen”.
